Results published in PubChem BioAssay (NCI).
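Method: 48-hour compound exposure of cells in 96-well plates, five concentrations, linear interpolation of endpoints. GI50: concentration for 50% inhibition of growth. Definition used: TGI = concentration required for complete inhibition of growth.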

Assays:
Experiment in all cases: NCI-60 cell line screen, 48 h
UO-31 renal = system: UO-31 renal
CCRF-CEM leukemia = system: CCRF-CEM leukemia
SNB-75 CNS = system: SNB-75 CNS
SK-OV-3 ovarian = system: SK-OV-3 ovarian
HCT-116 colon = system: HCT-116 colon
U251 CNS = system: U251 CNS
SNB-19 CNS = system: SNB-19 CNS
OVCAR-5 ovarian = system: OVCAR-5 ovarian
SK-MEL-2 melanoma = system: SK-MEL-2 melanoma
LOX IMVI melanoma = system: LOX IMVI melanoma

| Structure (SMILES) | TGI (UO-31 renal) [µM] | TGI (CCRF-CEM leukemia) [µM] | TGI (SNB-75 CNS) [µM] | TGI (SK-OV-3 ovarian) [µM] | TGI (HCT-116 colon) [µM] | TGI (U251 CNS) [µM] | TGI (SNB-19 CNS) [µM] | GI50 (UO-31 renal) [µM] | GI50 (CCRF-CEM leukemia) [µM] | GI50 (OVCAR-5 ovarian) [µM] | TGI (OVCAR-5 ovarian) [µM] | GI50 (SK-OV-3 ovarian) [µM] | GI50 (HCT-116 colon) [µM] | GI50 (SK-MEL-2 melanoma) [µM] | TGI (SK-MEL-2 melanoma) [µM] | GI50 (LOX IMVI melanoma) [µM] | TGI (LOX IMVI melanoma) [µM] | GI50 (U251 CNS) [µM] | GI50 (SNB-19 CNS) [µM] | GI50 (SNB-75 CNS) [µM] |
| --- | --- | --- | --- | --- | --- | --- | --- | --- | --- | --- | --- | --- | --- | --- | --- | --- | --- | --- | --- | --- |
| CC(C)C1CCC/C=C/C=C/C=C/C=C/C(OC2OC(C)C(O)C(N)C2O)CC2OC(O)(CC(O)CC(O)C(O)CCC(=O)O1)CC(O)C2C(=O)O (centres undefined) | > 52.5 | > 52.5 | > 52.5 | > 52.5 | > 52.5 | > 52.5 | > 52.5 | – | – | – | – | – | – | – | – | – | – | – | – | – |
| CC(C)CNc1nc(-c2ccccc2)nc2ccccc12 | 50.5 | 36.6 | – | 31.3 | 26.7 | 24.8 | 39.6 | 17.3 | 15.3 | 17.4 | 32.2 | 15.3 | 13.8 | 29.6 | > 100 | 14.7 | 28.3 | 12.2 | 19.2 | – |
| COC(=O)C12CC(c3ccccc31)C1C(=O)OC(=O)C12 (centres undefined) | > 100 | > 100 | > 100 | – | > 100 | > 100 | > 100 | – | – | – | > 100 | – | – | – | > 100 | – | > 100 | – | – | – |
| Cc1ccc(NC(=O)CCC/C(CC(=O)c2ccc(Br)cc2)=N/NC(=O)CC#N)cc1 | > 100 | > 100 | > 100 | – | > 100 | > 100 | > 100 | – | – | – | > 100 | – | – | – | > 100 | – | > 100 | – | – | – |
| CCN=c1cc2sc3cc(NCC)c(C)cc3nc-2cc1C | 16.4 | 17.4 | 5.11 | 12.6 | 2.01 | 6.71 | – | 2.16 | 0.76 | 2.51 | 9.26 | 2.58 | 0.361 | 1.82 | 4.64 | 0.746 | 4.28 | 0.646 | – | 1.8 |
| CCn1c(O)c(C=N)c(=O)n(CC)c1=O | > 100 | > 100 | > 100 | > 100 | > 100 | – | > 100 | – | – | – | > 100 | – | – | – | > 100 | – | > 100 | – | – | – |
| CCCCCCCCCCC(O)C1CCC(C(O)CCC(O)C2CCC(CCCCCCC[C@H](O)CC3=C[C@@H](C)OC3=O)O2)O1 (some centres undefined) | > 86.1 | – | 25.4 | > 66.1 | > 53.4 | > 100 | > 88.3 | – | – | – | > 100 | – | 3.48 | – | > 100 | 2.24 | > 100 | – | – | 2.92 |
| CCc1nc(N)nc(C(=O)NCCNC(=O)c2nc(N)nc(CC)c2C)c1C | > 100 | – | > 100 | – | > 100 | > 100 | > 100 | – | – | – | > 100 | – | – | – | > 100 | – | > 100 | – | – | – |
| O=CN1N=C(c2ccc(Cl)cc2)CC1c1cccc(Nc2ccnc3cc(Cl)ccc23)c1 (centres undefined) | > 100 | 23.1 | > 100 | > 100 | 4.02 | 13.6 | > 100 | 1.7 | 1.42 | 9.42 | > 100 | 2.9 | 1.2 | – | – | 1.29 | 3.42 | 2.47 | 4.19 | 1.7 |
| CCCN1CCN(c2ccc3nc(-c4ccc5nc(-c6cc(OC)ccc6OC)[nH]c5c4)[nH]c3c2)CC1 | 29.3 | 4.49 | 26.2 | – | 3.16 | 3.1 | – | 14.6 | 2.22 | 17.8 | 34.2 | – | 1.74 | 19.7 | 37.2 | 1.73 | 3.26 | 1.69 | – | 12.8 |
| COc1cc(C(=O)C/C(CCC(=O)Nc2ccc(Cl)cc2C)=N/NC(=O)C(N)=O)ccc1O | > 100 | > 100 | – | > 100 | > 100 | > 100 | > 100 | – | – | – | > 100 | – | – | – | > 100 | – | > 100 | – | – | – |
| Cc1nc2cc(N)c(F)cc2[nH]1 | > 100 | > 100 | – | > 100 | – | > 100 | > 100 | – | – | – | > 100 | – | – | – | > 100 | – | > 100 | – | – | – |
| CCCCc1ccc(-n2c3nc(=O)n(C)c(=O)c-3nc3ccccc32)cc1 | 25.1 | 41.6 | 30.3 | > 100 | 25.6 | 23.5 | 21.2 | – | – | – | 32 | – | – | – | 24 | – | – | – | – | – |
| COc1cccc(-c2nc3sccn3c2-c2ccnc(NCCNS(=O)(=O)c3ccccc3)c2)c1 | 6.65 | > 100 | – | > 100 | > 100 | > 100 | > 100 | 0.59 | 1.88 | 5.65 | > 100 | 5.11 | 2.73 | 1.96 | 5.96 | 3.01 | 84.1 | 3.9 | 5.92 | – |
| Nc1ncn(C2C=C(CO)C(O)C2O)c(=O)n1 (centres undefined) | > 100 | – | > 100 | > 100 | > 100 | > 100 | > 100 | – | – | – | – | – | – | – | > 100 | – | – | – | – | – |
| Nc1nc(=S)[nH]c(C(=O)Nc2ccc(Cl)c(Cl)c2)c1-c1ccc(Cl)cc1 | > 100 | > 100 | > 100 | > 100 | > 100 | > 100 | > 100 | – | – | – | > 100 | – | – | – | – | – | > 100 | – | – | – |
| Cc1cc(N2CCN(c3ccnc4cc(Cl)ccc34)CC2)nc(NC2CCCCC2)n1 | 3.13 | 10.1 | 3.95 | 4.51 | 2.91 | 3.37 | 11 | 1.4 | 2.71 | – | – | 2.02 | 1.32 | – | – | 1.73 | 3.19 | 1.72 | 2.98 | 1.79 |
| Cc1cc2cc3c(C)cc(=O)oc3c(C)c2o1 | > 100 | > 100 | > 100 | – | > 100 | > 100 | > 100 | – | – | – | > 100 | – | – | – | > 100 | – | > 100 | – | – | – |
